In patent US11530221B2, “Pyrimido[4,5-d]pyrimidin-2-one derivatives as protein kinase inhibitors” (KOREA INSTITUTE OF SCIENCE AND TECHNOLOGY, priority 2019, dated 2022):
Read-outs that look alike come from different tables or passages of the source. Square brackets hold non-standard residues; d marks the D form. Peptide text beside a SMILES is read from it. * marks the point of attachment. X1 = Cc1ccc(Nc2ncc3c(n2)N(C)C(=O)N(c2cc(C(=O)*)ccc2C)C3)cn1; Chg = N[C@H](C(=O)O)C1CCCCC1; Aze = O=C(O)[C@@H]1CCN1; Nva = CCC[C@H](N)C(=O)O; Aib = CC(C)(N)C(=O)O

Key:
Type in all cases: biochemical
p38a/MAPK14 = p38a/MAPK14 (Homo sapiens, UniProt Q16539); experiment: IC50 inhibitory activity against p38a/MAPK14 kinase; conditions: read-out: p38a/MAPK14 IC50
Procedure: (§1) IC50 values were calculated by measuring the inhibitory activity against LCK, c-Src, p38a/MAPK14, ABL1, DDR1 and FGR kinases of the compounds of the present invention.

ABL1 = ABL1 (Homo sapiens, UniProt P00519); experiment: IC50 inhibitory activity against ABL1 kinase
Procedure: as §1

LCK = LCK (Homo sapiens, UniProt P06239); experiment: IC50 inhibitory activity against LCK kinase
Procedure: as §1

c-Src = c-Src (Homo sapiens, UniProt P12931); experiment: IC50 inhibitory activity against c-Src kinase
Procedure: as §1

ABL1 (T315I) = ABL1 (T315I) (Homo sapiens, UniProt P00519, T315I); experiment: IC50 inhibitory activity against ABL1 (T315I) kinase; conditions: read-out: ABL1 (T315I) IC50
Procedure: as §1

c-Src, sequence (P12931 whole entry): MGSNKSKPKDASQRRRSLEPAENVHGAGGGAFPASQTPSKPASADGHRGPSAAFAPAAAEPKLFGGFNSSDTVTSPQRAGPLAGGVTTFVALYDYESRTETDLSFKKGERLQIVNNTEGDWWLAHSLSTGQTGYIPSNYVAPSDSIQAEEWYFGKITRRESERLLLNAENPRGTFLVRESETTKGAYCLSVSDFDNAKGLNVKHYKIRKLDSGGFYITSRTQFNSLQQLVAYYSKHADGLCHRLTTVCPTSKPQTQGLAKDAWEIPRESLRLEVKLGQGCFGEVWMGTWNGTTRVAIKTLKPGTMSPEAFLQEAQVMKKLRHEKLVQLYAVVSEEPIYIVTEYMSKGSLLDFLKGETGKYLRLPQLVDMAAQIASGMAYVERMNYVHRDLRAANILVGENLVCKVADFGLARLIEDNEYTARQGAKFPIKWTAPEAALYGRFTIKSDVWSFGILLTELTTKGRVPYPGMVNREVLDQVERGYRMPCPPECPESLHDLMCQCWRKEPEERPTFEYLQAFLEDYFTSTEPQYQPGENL
p38a/MAPK14, sequence (Q16539 whole entry): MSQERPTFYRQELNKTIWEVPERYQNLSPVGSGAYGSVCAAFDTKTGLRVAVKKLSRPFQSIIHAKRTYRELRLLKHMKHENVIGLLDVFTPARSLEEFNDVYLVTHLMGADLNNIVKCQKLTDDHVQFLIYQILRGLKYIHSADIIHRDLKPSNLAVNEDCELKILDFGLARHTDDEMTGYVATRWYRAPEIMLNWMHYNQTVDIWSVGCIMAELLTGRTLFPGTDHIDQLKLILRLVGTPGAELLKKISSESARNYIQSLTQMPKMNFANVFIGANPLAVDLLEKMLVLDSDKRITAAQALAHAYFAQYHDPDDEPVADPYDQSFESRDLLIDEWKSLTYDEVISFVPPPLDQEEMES
LCK, sequence (P06239 whole entry): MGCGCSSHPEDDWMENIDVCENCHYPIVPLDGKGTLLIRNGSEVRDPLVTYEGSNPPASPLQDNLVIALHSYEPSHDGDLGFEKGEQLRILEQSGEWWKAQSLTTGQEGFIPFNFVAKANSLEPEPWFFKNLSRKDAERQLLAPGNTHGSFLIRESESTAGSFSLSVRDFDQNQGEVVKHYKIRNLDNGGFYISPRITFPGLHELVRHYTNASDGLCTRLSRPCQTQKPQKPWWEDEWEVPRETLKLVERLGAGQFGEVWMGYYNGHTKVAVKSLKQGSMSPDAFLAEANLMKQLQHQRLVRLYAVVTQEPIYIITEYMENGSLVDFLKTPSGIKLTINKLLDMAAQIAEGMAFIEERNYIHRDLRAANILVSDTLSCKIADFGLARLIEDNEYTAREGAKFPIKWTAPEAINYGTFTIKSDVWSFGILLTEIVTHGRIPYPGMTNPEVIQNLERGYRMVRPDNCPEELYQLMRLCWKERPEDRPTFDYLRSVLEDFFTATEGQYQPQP

SMILES | IC50 (p38a/MAPK14) [nM] | IC50 (ABL1; read-out: ABL1 IC50) [nM] | IC50 (LCK; read-out: LCK IC50) [nM] | IC50 (c-Src; read-out: c-Src IC50) [nM] | IC50 (ABL1 (T315I)) [nM] | IC50 (ABL1) [nM] | IC50 (LCK) [nM] | IC50 (c-Src) [nM]
Cc1ccc(Nc2ncc3c(n2)N(C)C(=O)N(c2cc(NC(=O)c4ccc([N+](=O)[O-])c(OCCc5c[nH]c6ccccc56)c4)ccc2C)C3)cn1 [Example 50, 3-(2-(1H-indol-3-yl)ethoxy)-N-(4-methyl-3-(1-methyl-7-((6-methylpyridin-3-yl)amino)-2-oxo-1,4-dihydropyrimido[4,5-d]pyrimidin-3(2H)-yl)phenyl)-4-nitrobenzamide] | 200 to 400 | 1 to 200 | – | – | – | – | – | –
Cc1ccc(Nc2ncc3c(n2)N(C)C(=O)N(c2cc(NC(=O)c4ccc5c(c4)NC(=O)[C@H](C)N=C5c4ccccc4)ccc2C)C3)cn1 [Example 30, (S)-3-methyl-N-(4-methyl-3-(1-methyl-7-((6-methylpyridin-3-yl)amino)-2-oxo-1,4-dihydropyrimido[4,5-d]pyrimidin-3(2H)-yl)phenyl)-2-oxo-5-phenyl-2,3-dihydro-1H-benzo[e][1,4]diazepine-8-carboxamide] | 1 to 200 | 1 to 200 | 1 to 200 | 1 to 200 | > 600 | – | – | –
Cc1ccc(Nc2ncc3c(n2)N(C)C(=O)N(c2cc(NC(=O)[C@H](CC(C)C)NC(=O)c4ccc([N+](=O)[O-])c(OCC(C)C)c4)ccc2C)C3)cn1 [Example 54, (S)-3-isobutoxy-N-(4-methyl-1-((4-methyl-3-(1-methyl-7-((6-methylpyridin-3-yl)amino)-2-oxo-1,4-dihydropyrimido[4,5-d]pyrimidin-3(2H)-yl)phenyl)amino)-1-oxopentan-2-yl)-4-nitrobenzamide] | > 600 | 1 to 200 | – | – | > 600 | – | – | –
Cc1ccc(Nc2ncc3c(n2)N(C)C(=O)N(c2cc(NC(=O)c4ccc([N+](=O)[O-])c(OCC(C)C)c4)ccc2C)C3)cn1 [Example 49, 3-isobutoxy-N-(4-methyl-3-(1-methyl-7-((6-methylpyridin-3-yl)amino)-2-oxo-1,4-dihydropyrimido[4,5-d]pyrimidin-3(2H)-yl)phenyl)-4-nitrobenzamide] | 1 to 200 | 1 to 200 | – | – | > 600 | – | – | –
Cc1ccc(Nc2ncc3c(n2)N(C)C(=O)N(c2cc(NC(=O)[C@@H]4CN(C(=O)OCC(Cl)(Cl)Cl)C[C@H]4C(=O)NCc4ccc(Cl)cc4)ccc2C)C3)cn1 [Example 57, 2,2,2-trichloroethyl (3S,4S)-3-((4-chlorobenzyl)carbamoyl)-4-((4-methyl-3-(1-methyl-7-((6-methylpyridin-3-yl)amino)-2-oxo-1,4-dihydropyrimido[4,5-d]pyrimidin-3(2H)-yl)phenyl)carbamoyl)pyrrolidine-1-carboxylate] | 1 to 200 | 1 to 200 | 1 to 200 | 1 to 200 | – | – | – | –
Cc1ccc(Nc2ncc3c(n2)N(C)C(=O)N(c2cc(C(=O)N4C[C@@H](C(=O)NCc5ccccc5)[C@H](C(=O)NCc5ccc(Cl)cc5)C4)ccc2C)C3)cn1 [Example 47, (3S,4S)—N^3-benzyl-N^4-(4-chlorobenzyl)-1-(4-methyl-3-(1-methyl-7-((6-methylpyridin-3-yl)amino)-2-oxo-1,4-dihydropyrimido[4,5-d]pyrimidin-3(2H)-yl)benzoyl)pyrrolidine-3,4-dicarboxamide] | 1 to 200 | 1 to 200 | 1 to 200 | 1 to 200 | – | – | – | –
COc1ccc(CCOc2cc(C(=O)N[C@@H](C)C(=O)Nc3ccc(C)c(N4Cc5cnc(Nc6ccc(C)nc6)nc5N(C)C4=O)c3)ccc2[N+](=O)[O-])cc1 [Example 56] | > 600 | 1 to 200 | – | – | – | – | – | –
Cc1ccc(Nc2ncc3c(n2)N(C)C(=O)N(c2cc(C(=O)N4C[C@@H](C(=O)NCCc5c[nH]c6ccccc56)[C@H](C(=O)NCc5ccc(Cl)cc5)C4)ccc2C)C3)cn1 [Example 48, (3S,4S)—N^3-(2-(1H-indol-3-yl)ethyl)-N^4-(4-chlorobenzyl)-1-(4-methyl-3-(1-methyl-7-((6-methylpyridin-3-yl)amino)-2-oxo-1,4-dihydropyrimido[4,5-d]pyrimidin-3(2H)-yl)benzoyl)pyrrolidine-3,4-dicarboxamide] | 400 to 600 | 1 to 200 | 1 to 200 | 1 to 200 | – | – | – | –
Cc1ccc(Nc2ncc3c(n2)N(C)C(=O)N(c2cc(NC(=O)CNC(=O)c4ccc([N+](=O)[O-])c(OCC(C)C)c4)ccc2C)C3)cn1 [Example 52, 3-isobutoxy-N-(2-((4-methyl-3-(1-methyl-7-((6-methylpyridin-3-yl)amino)-2-oxo-1,4-dihydropyrimido[4,5-d]pyrimidin-3(2H)-yl)phenyl)amino)-2-oxoethyl)-4-nitrobenzamide] | 400 to 600 | 1 to 200 | – | – | > 600 | – | – | –
Cc1ccc(Nc2ncc3c(n2)N(C)C(=O)N(c2cc(C(=O)NCC(=O)N4CCC[C@H]4C(=O)NC(C)(C)C(=O)N[C@@H](CC(C)C)C(=O)N(C)C)ccc2C)C3)cn1 [Example 18, (S)—N-(1-(((S)-1-(dimethylamino)-4-methyl-1-oxopentan-2-yl)amino)-2-methyl-1-oxopropan-2-yl)-1-((4-methyl-3-(1-methyl-7-((6-methylpyridin-3-yl)amino)-2-oxo-1,4-dihydropyrimido[4,5-d]pyrimidin-3(2H)-yl)benzoyl)glycyl)pyrrolidine-2-carboxamide] (X1-GP[Aib]L-NMe2) | – | – | – | – | – | 1 to 200 | 200 to 400 | 400 to 600
Cc1ccc(Nc2ncc3c(n2)N(C)C(=O)N(c2cc(C(=O)N[C@H](C(=O)N4CCC[C@H]4C(=O)NC(C)(C)C(=O)N[C@@H](CC(C)C)C(=O)N(C)C)C4CCCCC4)ccc2C)C3)cn1 [Example 19, (S)-1-((S)-2-cyclohexyl-2-((4-methyl-3-(1-methyl-7-((6-methylpyridin-3-yl)amino)-2-oxo-1,4-dihydropyrimido[4,5-d]pyrimidin-3(2H)-yl)benzamido)acetyl)-N-(1-(((S)-1-dimethylamino)-4-methyl-1-oxopentan-2-yl)amino)-2-methyl-1-oxopropan-2-yl]pyrrolidine-2-carboxamide] (X1-[Chg]P[Aib]L-NMe2) | – | – | – | – | – | 200 to 400 | 1 to 200 | 400 to 600
Cc1ccc(Nc2ncc3c(n2)N(C)C(=O)N(c2cc(NC(=O)[C@H](C)NC(=O)c4ccc([N+](=O)[O-])c(OCC(C)C)c4)ccc2C)C3)cn1 [Example 53, (S)-3-isobutoxy-N-(1-((4-methyl-3-(1-methyl-7-((6-methylpyridin-3-yl)amino)-2-oxo-1,4-dihydropyrimido[4,5-d]pyrimidin-3(2H)-yl)phenyl)amino)-2-oxopropan-2-yl)-4-nitrobenzamide] | > 600 | > 600 | – | – | – | – | – | –
COc1ccc(CCOc2cc(C(=O)Nc3ccc(C)c(N4Cc5cnc(Nc6ccc(C)nc6)nc5N(C)C4=O)c3)ccc2[N+](=O)[O-])cc1 [Example 51, 3-(4-methoxyphenethoxy)-N-(4-methyl-3-(1-methyl-7-((6-methylpyridin-3-yl)amino)-2-oxo-1,4-dihydropyrimido[4,5-d]pyrimidin-3(2H)-yl)phenyl)-4-nitrobenzamide] | 1 to 200 | 1 to 200 | 1 to 200 | – | – | – | – | –
Cc1ccc(Nc2ncc3c(n2)N(C)C(=O)N(c2cc(C(=O)N[C@@H](CC(C)C)C(=O)N4CCC[C@H]4C(=O)NC(C)(C)C(=O)N[C@@H](CC(C)C)C(=O)N(C)C)ccc2C)C3)cn1 [Example 20, (S)—N-(1-(((S)-1-(dimethylamino)-4-methyl-1-oxopentan-2-yl)amino)-2-methyl-1-oxopropan-2-yl)-1-((4-methyl-3-(1-methyl-7-((6-methylpyridin-3-yl)amino)-2-oxo-1,4-dihydropyrimido[4,5-d]pyrimidin-3(2H)-yl)benzoyl)-L-lucyl)pyrrolidine-2-carboxamide] (X1-LP[Aib]L-NMe2) | – | – | – | – | – | 1 to 200 | 1 to 200 | 1 to 200
Cc1ccc(Nc2ncc3c(n2)N(C)C(=O)N(c2cc(C(=O)N[C@H](C(=O)N4CC[C@H]4C(=O)NC(C)(C)C(=O)N[C@@H](CC(C)C)C(=O)N(C)C)C(C)C)ccc2C)C3)cn1 [Example 15, (S)—N-(1-(((S)-1-(dimethylamino)-4-methyl-1-oxopentan-2-yl)amino)-2-methyl-1-oxopropan-2-yl)-1-((4-methyl-3-(1-methyl-7-((6-methylpyridin-3-yl)amino)-2-oxo-1,4-dihydropyrimido[4,5-d]pyrimidin-3(2H)-yl)benzoyl)-L-valyl)azetidine-2-carboxamide] (X1-V[Aze][Aib]L-NMe2) | – | – | – | – | – | 1 to 200 | 200 to 400 | > 600
Cc1ccc(Nc2ncc3c(n2)N(C)C(=O)N(c2cc(C(=O)N[C@@H](C)C(=O)N4CCC[C@H]4C(=O)NC(C)(C)C(=O)N[C@@H](CC(C)C)C(=O)N(C)C)ccc2C)C3)cn1 [Example 17, (S)—N-(1-(((S)-1-(dimethylamino)-4-methyl-1-oxopentan-2-yl)amino)-2-methyl-1-oxopropan-2-yl)-1-((4-methyl-3-(1-methyl-7-((6-methylpyridin-3-yl)amino)-2-oxo-1,4-dihydropyrimido[4,5-d]pyrimidin-3(2H)-yl)benzoyl)-L-alanyl)pyrrolidine-2-carboxamide] (X1-AP[Aib]L-NMe2) | – | 1 to 200 | 1 to 200 | 200 to 400 | – | – | – | –
CCC[C@H](NC(=O)c1ccc(C)c(N2Cc3cnc(Nc4ccc(C)nc4)nc3N(C)C2=O)c1)C(=O)N1CCC[C@H]1C(=O)NC(C)(C)C(=O)N[C@@H](CC(C)C)C(=O)N(C)C [Example 21, (S)—N-(1-(((S)-1-(dimethylamino)-4-methyl-1-oxopentan-2-yl)amino)-2-methyl-1-oxopropan-2-yl)-1-((S)-2-(4-methyl-3-(1-methyl-7-((6-methylpyridin-3-yl)amino)-2-oxo-1,4-dihydropyrimido[4,5-d]pyrimidin-3(2H)-yl)benzamido)pentanoyl)pyrrolidine-2-carboxamide] (X1-[Nva]P[Aib]L-NMe2) | – | – | – | – | – | 1 to 200 | 1 to 200 | 400 to 600
